The NIST ThermoML archive (doi:10.1021/je900596d)
± gives the expanded uncertainty stated by the source.

Details: Vibrating tube method

Question: With `FC(F)=C(F)C(F)(F)F` [hexafluoropropene] as the compound, how does the mass density (323.21 K, 828.7 kPa, Fluid (supercritical or subcritical phases)) read?
Answer: 54.45 ± 0.08 kg/m3

Question: What about the mass density (323.21 K, 843.1 kPa, Fluid (supercritical or subcritical phases)) of the same compound?
Answer: 55.34 ± 0.09 kg/m3

Question: And the mass density (323.21 K, 857.3 kPa, Fluid (supercritical or subcritical phases))?
Answer: 56.72 ± 0.08 kg/m3

Question: And the mass density (323.21 K, 871.6 kPa, Fluid (supercritical or subcritical phases))?
Answer: 57.78 ± 0.08 kg/m3

Question: And the mass density (323.21 K, 885.7 kPa, Fluid (supercritical or subcritical phases))?
Answer: 58.95 ± 0.08 kg/m3

Question: And the mass density (323.21 K, 899.5 kPa, Fluid (supercritical or subcritical phases))?
Answer: 60.25 ± 0.08 kg/m3

Question: And the mass density (323.21 K, 913.3 kPa, Fluid (supercritical or subcritical phases))?
Answer: 61.27 ± 0.08 kg/m3

Question: What about the mass density (323.21 K, 926.9 kPa, Fluid (supercritical or subcritical phases)) of the same compound?
Answer: 62.44 ± 0.09 kg/m3

Question: What about the mass density (323.21 K, 940.4 kPa, Fluid (supercritical or subcritical phases)) of the same compound?
Answer: 63.5 ± 0.09 kg/m3

Question: What about the mass density (323.21 K, 953.6 kPa, Fluid (supercritical or subcritical phases)) of the same compound?
Answer: 64.78 ± 0.09 kg/m3

Question: And the mass density (323.21 K, 979.1 kPa, Fluid (supercritical or subcritical phases))?
Answer: 66.9 ± 0.09 kg/m3

Question: And the mass density (323.21 K, 991.3 kPa, Fluid (supercritical or subcritical phases))?
Answer: 67.99 ± 0.1 kg/m3

Question: What about the mass density (323.21 K, 1002.7 kPa, Fluid (supercritical or subcritical phases)) of the same compound?
Answer: 69.01 ± 0.1 kg/m3

Question: And the mass density (323.21 K, 1014.7 kPa, Fluid (supercritical or subcritical phases))?
Answer: 70.07 ± 0.1 kg/m3

Question: And the mass density (323.21 K, 1026.1 kPa, Fluid (supercritical or subcritical phases))?
Answer: 71.06 ± 0.1 kg/m3

Question: What about the mass density (323.21 K, 1037.2 kPa, Fluid (supercritical or subcritical phases)) of the same compound?
Answer: 72 ± 0.11 kg/m3

Question: And the mass density (323.21 K, 1048.9 kPa, Fluid (supercritical or subcritical phases))?
Answer: 73.11 ± 0.11 kg/m3

Question: And the mass density (323.21 K, 1059.5 kPa, Fluid (supercritical or subcritical phases))?
Answer: 74 ± 0.11 kg/m3

Question: And the mass density (323.21 K, 1071.8 kPa, Fluid (supercritical or subcritical phases))?
Answer: 75.2 ± 0.11 kg/m3

Question: And the mass density (323.21 K, 1084.6 kPa, Fluid (supercritical or subcritical phases))?
Answer: 76.45 ± 0.11 kg/m3

Question: What about the mass density (323.21 K, 1096.6 kPa, Fluid (supercritical or subcritical phases)) of the same compound?
Answer: 77.55 ± 0.11 kg/m3

Question: What about the mass density (323.21 K, 1108.7 kPa, Fluid (supercritical or subcritical phases)) of the same compound?
Answer: 78.69 ± 0.12 kg/m3

Question: And the mass density (323.21 K, 1120.7 kPa, Fluid (supercritical or subcritical phases))?
Answer: 80.05 ± 0.12 kg/m3

Question: What about the mass density (323.21 K, 1132.3 kPa, Fluid (supercritical or subcritical phases)) of the same compound?
Answer: 81.01 ± 0.12 kg/m3

Question: And the mass density (323.21 K, 1143.9 kPa, Fluid (supercritical or subcritical phases))?
Answer: 82.09 ± 0.12 kg/m3

Question: What about the mass density (323.21 K, 1155.2 kPa, Fluid (supercritical or subcritical phases)) of the same compound?
Answer: 83.24 ± 0.12 kg/m3

Question: And the mass density (323.21 K, 1165.7 kPa, Fluid (supercritical or subcritical phases))?
Answer: 84.23 ± 0.13 kg/m3

Question: What about the mass density (323.21 K, 1176.1 kPa, Fluid (supercritical or subcritical phases)) of the same compound?
Answer: 85.31 ± 0.13 kg/m3

Question: What about the mass density (323.21 K, 1188.5 kPa, Fluid (supercritical or subcritical phases)) of the same compound?
Answer: 86.52 ± 0.13 kg/m3

Question: And the mass density (323.21 K, 1200.2 kPa, Fluid (supercritical or subcritical phases))?
Answer: 87.81 ± 0.13 kg/m3

Question: What about the mass density (323.21 K, 1211.6 kPa, Fluid (supercritical or subcritical phases)) of the same compound?
Answer: 88.92 ± 0.13 kg/m3

Question: And the mass density (323.21 K, 1222.4 kPa, Fluid (supercritical or subcritical phases))?
Answer: 90.01 ± 0.13 kg/m3

Question: And the mass density (323.21 K, 1232.6 kPa, Fluid (supercritical or subcritical phases))?
Answer: 91.08 ± 0.14 kg/m3

Question: And the mass density (323.21 K, 1244.2 kPa, Fluid (supercritical or subcritical phases))?
Answer: 92.41 ± 0.14 kg/m3

Question: And the mass density (323.21 K, 1254.9 kPa, Fluid (supercritical or subcritical phases))?
Answer: 93.54 ± 0.14 kg/m3

Question: And the mass density (323.21 K, 1265.5 kPa, Fluid (supercritical or subcritical phases))?
Answer: 94.64 ± 0.14 kg/m3

Question: And the mass density (323.21 K, 1276.2 kPa, Fluid (supercritical or subcritical phases))?
Answer: 95.86 ± 0.15 kg/m3

Question: And the mass density (323.21 K, 1286.6 kPa, Fluid (supercritical or subcritical phases))?
Answer: 97.01 ± 0.15 kg/m3

Question: And the mass density (323.21 K, 1298.7 kPa, Fluid (supercritical or subcritical phases))?
Answer: 98.44 ± 0.15 kg/m3

Question: What about the mass density (323.21 K, 1311.6 kPa, Fluid (supercritical or subcritical phases)) of the same compound?
Answer: 99.8 ± 0.15 kg/m3

Question: And the mass density (323.21 K, 1324 kPa, Fluid (supercritical or subcritical phases))?
Answer: 101.35 ± 0.16 kg/m3

Question: What about the mass density (323.21 K, 1336 kPa, Fluid (supercritical or subcritical phases)) of the same compound?
Answer: 102.77 ± 0.16 kg/m3

Question: What about the mass density (323.21 K, 1347.5 kPa, Fluid (supercritical or subcritical phases)) of the same compound?
Answer: 104.06 ± 0.16 kg/m3

Question: What about the mass density (323.21 K, 1358.7 kPa, Fluid (supercritical or subcritical phases)) of the same compound?
Answer: 105.47 ± 0.16 kg/m3

Question: What about the mass density (323.21 K, 1369.5 kPa, Fluid (supercritical or subcritical phases)) of the same compound?
Answer: 106.75 ± 0.17 kg/m3

Question: What about the mass density (323.21 K, 1380 kPa, Fluid (supercritical or subcritical phases)) of the same compound?
Answer: 108.11 ± 0.17 kg/m3

Question: And the mass density (323.21 K, 1392.5 kPa, Fluid (supercritical or subcritical phases))?
Answer: 109.8 ± 0.17 kg/m3

Question: And the mass density (323.21 K, 1402.5 kPa, Fluid (supercritical or subcritical phases))?
Answer: 110.98 ± 0.2 kg/m3

Question: And the mass density (323.21 K, 1410.5 kPa, Fluid (supercritical or subcritical phases))?
Answer: 112.1 ± 0.23 kg/m3

Question: And the mass density (323.21 K, 1411.1 kPa, Fluid (supercritical or subcritical phases))?
Answer: 112.29 ± 0.23 kg/m3

Question: What about the mass density (323.21 K, 1411.8 kPa, Fluid (supercritical or subcritical phases)) of the same compound?
Answer: 112.41 ± 0.23 kg/m3

Question: And the mass density (323.21 K, 1412.5 kPa, Fluid (supercritical or subcritical phases))?
Answer: 112.57 ± 0.23 kg/m3

Question: What about the mass density (323.21 K, 1413.3 kPa, Fluid (supercritical or subcritical phases)) of the same compound?
Answer: 112.79 ± 0.29 kg/m3

Question: What about the mass density (323.21 K, 1414.6 kPa, Fluid (supercritical or subcritical phases)) of the same compound?
Answer: 113.23 ± 0.21 kg/m3

Question: And the mass density (323.21 K, 1415.9 kPa, Fluid (supercritical or subcritical phases))?
Answer: 113.81 ± 0.22 kg/m3

Question: And the mass density (323.21 K, 1417 kPa, Fluid (supercritical or subcritical phases))?
Answer: 114.07 ± 0.23 kg/m3

Question: And the mass density (323.21 K, 1417.8 kPa, Fluid (supercritical or subcritical phases))?
Answer: 114.29 ± 0.23 kg/m3

Question: What about the mass density (323.21 K, 1418.6 kPa, Fluid (supercritical or subcritical phases)) of the same compound?
Answer: 115.65 ± 0.28 kg/m3

Question: What about the mass density (323.21 K, 1418.8 kPa, Fluid (supercritical or subcritical phases)) of the same compound?
Answer: 116.26 ± 0.31 kg/m3

Question: And the mass density (323.37 K, 1419.4 kPa, Liquid)?
Answer: 1174.23 ± 1.2 kg/m3

Question: What about the mass density (323.37 K, 1421.5 kPa, Liquid) of the same compound?
Answer: 1174.38 ± 1.2 kg/m3

Question: And the mass density (323.37 K, 1423.2 kPa, Liquid)?
Answer: 1174.38 ± 1.2 kg/m3

Question: And the mass density (323.37 K, 1425.7 kPa, Liquid)?
Answer: 1174.43 ± 1.2 kg/m3

Question: What about the mass density (323.37 K, 1427.1 kPa, Liquid) of the same compound?
Answer: 1174.45 ± 1.2 kg/m3

Question: What about the mass density (323.37 K, 1432.2 kPa, Liquid) of the same compound?
Answer: 1174.63 ± 1.2 kg/m3

Question: And the mass density (323.37 K, 1436.2 kPa, Liquid)?
Answer: 1174.81 ± 1.2 kg/m3
